SMILES strings stand for the structures. In brackets after ≈: the same amount, converted by molar mass. Activity calls are given as the source filed them.

Series [1] relates to THP-1. Briefly: Inhibition of inflammasome in human THP1 cells assessed as reversal of MSU-induced increase in NLRP3 protein level at 10 uM pretreated for 1 hr followed by MSU treatment and measured after 12 hrs by Western blot analysis. It counts as functional, cell-based. (A western blot detects proteins with antibodies after separation by electrophoresis.)
For series [2], the system named is THP-1. The experiment in a line: Inhibition of inflammasome in human THP1 cells assessed as reversal of MSU-induced co-localization of NLRP3 at 10 uM pretreated for 1 hr followed by MSU treatment and measured after 12 hrs by DAPI staining based confocal laser scanning microscopic method. Type of series: functional, cell-based.
Series [3] relates to THP-1. The experiment in a line: Inhibition of pyroptosis in human THP1 cells assessed as inhibition of MSU-induced increase in IL-1beta level at 10 uM by ELISA. Type of series: functional, cell-based. Background: ELISA stands for enzyme-linked immunosorbent assay.
For series [4], the system named is THP-1. Briefly: Inhibition of inflammasome in human THP1 cells assessed as reversal of MSU-induced increase in ASC protein level at 10 uM pretreated for 1 hr followed by MSU treatment and measured after 12 hrs by Western blot analysis. Type of series: functional, cell-based.
The nature of series [5]: Solubility of compound in pH 7.4 PBS buffer vortex for 1 min followed by 10 mins sonication and further incubated for overnight under shaking condition by UV-vis absorption spectrometric method. Type of series: physicochemical.
Series [6] deals with THP-1. The experiment in a line: Inhibition of pyroptosis in human THP1 cells assessed as inhibition of MSU-induced increase in caspase1 level at 10 uM pretreated for 1 hr followed by MSU treatment and measured after 12 hrs by PI staining based flow cytometric analysis. It counts as functional, cell-based. A general note: Flow cytometry measures light scatter and fluorescence of single cells or particles in a stream.

Series [7] concerns THP-1. The experiment in a line: Inhibition of inflammasome in human THP1 cells assessed as reversal of MSU-induced increase in caspase1 p20 protein level at 10 uM pretreated for 1 hr followed by MSU treatment and measured after 12 hrs by Western blot analysis. It counts as functional, cell-based.
A short description of series [8]: Ratio of solubility for test compound to solubility for PPTN. It counts as physicochemical.
Series [9] addresses T1, P2Y purinoceptor 14 (Homo sapiens) (UniProt Q15391).
T1 sequence (whole entry): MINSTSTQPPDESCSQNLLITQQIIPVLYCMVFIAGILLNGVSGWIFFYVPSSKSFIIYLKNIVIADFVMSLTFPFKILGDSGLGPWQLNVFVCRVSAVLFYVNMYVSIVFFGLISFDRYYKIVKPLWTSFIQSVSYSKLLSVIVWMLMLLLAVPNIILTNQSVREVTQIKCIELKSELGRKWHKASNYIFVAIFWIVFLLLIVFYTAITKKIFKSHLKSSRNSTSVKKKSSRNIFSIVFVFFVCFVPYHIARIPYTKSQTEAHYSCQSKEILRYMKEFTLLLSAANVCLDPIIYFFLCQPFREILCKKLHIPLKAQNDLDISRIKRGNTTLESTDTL
The experiment in a line: Inhibition of P2Y14 in human THP1 cells assessed as reversal of MSU-induced reduction in cAMP production at 5 to 20 uM pretreated for 1 hr followed by MSU treatment and measured after 12 hrs by ELISA. Type of series: functional, cell-based.

Series [10] concerns the target T2, P2Y purinoceptor 14 (Homo sapiens, UniProt Q15391).
T2 sequence (Q15391 whole entry): T1 sequence (whole entry)
Briefly: Antagonist activity at human P2Y14R stably expressed in human forskolin treated THP1 cells assessed as reduction in P2Y14R agonist UDPG-induced inhibition of cAMP production incubated for 15 mins by competitive enzyme-linked immunoassay. Type of series: functional, cell-based.

Series [11] concerns THP-1. The experiment in a line: Inhibition of inflammasome in human THP1 cells assessed as reversal of MSU-induced increase in caspase1 p20 protein level at 5 to 20 uM pretreated for 1 hr followed by MSU treatment and measured after 12 hrs by Western blot analysis. It counts as functional, cell-based.
For series [12], the system named is THP-1. The experiment in a line: Inhibition of inflammasome in human THP1 cells assessed as reversal of MSU-induced co-localization of NLRP3 at 5 to 20 uM pretreated for 1 hr followed by MSU treatment and measured after 12 hrs by DAPI staining based confocal laser scanning microscopic method. Type of series: functional, cell-based.
Series [13] in a line: Microsomal stability in rat liver microsomes assessed as parent compound remaining at 20 uM measured for 10 to 120 mins in presence of NADPH by LC-MS/MS analysis. Type of series: ADME, Microsome.
For series [14], the system named is THP-1. The experiment in a line: Inhibition of inflammasome in human THP1 cells assessed as reversal of MSU-induced increase in NLRP3 protein level at 5 to 20 uM pretreated for 1 hr followed by MSU treatment and measured after 12 hrs by Western blot analysis. It counts as functional, cell-based.
For series [15], the system named is THP-1. Briefly: Inhibition of pyroptosis in human THP1 cells assessed as inhibition of MSU-induced increase in IL-1beta level at 5 to 20 uM by ELISA. It counts as functional, cell-based.
In series [16] the test system is THP-1. The experiment in a line: Inhibition of inflammasome in human THP1 cells assessed as reversal of MSU-induced increase in ASC protein level at 5 to 20 uM pretreated for 1 hr followed by MSU treatment and measured after 12 hrs by Western blot analysis. Type of series: functional, cell-based.
The nature of series [17]: Microsomal stability in human liver microsomes assessed as parent compound remaining at 20 uM measured for 10 to 120 mins in presence of NADPH by LC-MS/MS analysis. It counts as ADME, Microsome.
The subject of series [18] is THP-1. Briefly: Inhibition of pyroptosis in human THP1 cells assessed as inhibition of MSU-induced increase in caspase1 level at 5 to 20 uM pretreated for 1 hr followed by MSU treatment and measured after 12 hrs by PI staining based flow cytometric analysis. It counts as functional, cell-based.

As usually defined, the solubility (thermodynamic) is solubility found after equilibrating the solid with the medium. Regarding `O=C(O)c1cc(-c2ccc(C3CCNCC3)cc2)c2ccc(-c3ccc(C(F)(F)F)cc3)cc2c1` [PPTN], the inhibition entry in series [1], in series [2], in series [3], in series [4], in [6] and in series [7] was “Active” throughout. Further, in series [5], the solubility (thermodynamic) was less than 5 µg/mL.

The term IC50 denotes the concentration needed to halve the response being measured. The term half-life denotes the time needed for the level to fall by half in the phase considered. As to `Cc1ccc(C(=O)Nc2cc(C(=O)O)cc(-c3ccc(C4CCNCC4)cc3)c2)cc1`, the Ratio in series [8] was greater than 100. The inhibition result in series [9], in series [11], in [12], in series [14], in [15] and in [16] was “Active” in each case. For the same molecule, in series [18], the inhibition entry is “Active”. Further, in [10], the 50% inhibitory concentration (IC50) turned out to be 1.77 nM. Moreover, in series [5], the solubility (thermodynamic) stood at 572 µg/mL (≈ 1380 µM). Moreover, the half-life at 20 µM in series [13] and in series [17] was greater than 1 h each time.

In the case of `O=C(O)c1cc(NC(=O)c2cnccn2)cc(-c2ccc(C3CCNCC3)cc2)c1`, in series [10], the IC50 is 4.35 nM.

For the molecule `N#Cc1ccc(C(=O)Nc2cc(C(=O)O)cc(-c3ccc(C4CCNCC4)cc3)c2)cc1`, in [10], the IC50 stood at 4.54 nM.

In the case of `O=C(O)c1cc(NC(=O)c2ccc([N+](=O)[O-])cc2)cc(-c2ccc(C3CCNCC3)cc2)c1`, in series [10], the IC50 stood at 5.06 nM.

As for `O=C(O)c1cc(NC(=O)c2ccccc2)cc(-c2ccc(C3CCNCC3)cc2)c1`, the concentration for half-maximal inhibition (IC50) in series [10] was 4.95 nM.

On to `O=C(O)c1cc(NC(=O)c2ccncc2)cc(-c2ccc(C3CCNCC3)cc2)c1`, for which, in series [10], the half-inhibitory concentration (IC50) was 3.17 nM.

The record behind these values is ChEMBL document CHEMBL4359861, “Design, synthesis and anti-inflammatory evaluation of 3-amide benzoic acid derivatives as novel P2Y14 receptor antagonists” (Eur J Med Chem, 2019).
